From PMC9481570, “A small molecule antagonist of SMN disrupts the interaction between SMN and RNAP II” (Nature Communications, 2022) come the findings set out here.

In the assay the test system is GEMIN1. Put plainly: AP-MS chemical proteomics, GEMIN1. Format: binding, human. The note with it: biotin-Cmpd 1 pulldown, competition with 200 μM compound 1 relative to DMSO, U2OS lysate. The protocol: The samples for AP-MS were prepared following pulldown procedure as previously described with minor modifications. Briefly, U2OS cells were lysed in RIPA buffer and the cell lysate was equally divided into two groups: (1) DMSO group (control group): the cell lysate was incubated with 20 μM biotin-labeled compound 1; (2) Cpmd 1 group (sample group): the cell lysate was incubated with 20 μM biotin-labeled compound 1 and 200 μM free compound 1. Each group contains three biological replicates. They were incubated overnight at 4 °C, then 30 μL streptavidin beads (Thermo Fisher, 20353) was added and incubated at 4 °C for 1 h. The beads were then washed with RIPA buffer for 3 times, 10 min/time. […]
Samples were analyzed by nanoLC-MS/MS (nanoRSLC, Thermo Fisher) using an Aurora series (Ion Opticks) reversed phase HPLC column (25 cm length × 75 µm inner diameter) and directly injected to an Orbitrap Eclipse (Thermo Fisher) using a 120 min gradient (mobile phase A = 0.1% formic acid, mobile phase B = 99.9% acetonitrile with 0.1% formic acid; hold 2% B for 5 min, 2–6% B in 0.1 min, 6–25% in 100 min, 25–50% in 15 min) at a flow rate of 350 nL/min. Eluted peptide ions were analyzed using a data-dependent acquisition (DDA) method with resolution settings of 120,000 and 15,000 (at m/z 200) for MS1 and MS2 scans, respectively. […]

Take `Cn1c2c(c(=N)c3c1CCC3)CCC2` [Compound 1, 4-methyl-2,3,4,5,6,7-hexahydrodicyclopenta[b,e]pyridin-8(1H)-imine]: the “log2 FC (Cmpd 1/DMSO), GEMIN1” value is listed as −6.9.
